From ChEMBL document CHEMBL1765077, “Nonterpenoid C15 acetogenins from Laurencia marilzae” (2011)

Legend:
Type in all cases: functional
[1] = tested on: WiDr; assay: Antiproliferative activity against human WiDr cells after 48 hrs
[2] = tested on: T47D; assay: Antiproliferative activity against human T47D cells after 48 hrs
[3] = tested on: SW1573; assay: Antiproliferative activity against human SW1573 cells after 48 hrs; conditions: SW1573, 48 h
[4] = tested on: HeLa; assay: Antiproliferative activity against human HeLa cells after 48 hrs
[5] = tested on: HBL-100; assay: Antiproliferative activity against human HBL100 cells after 48 hrs; conditions: HBL-100, 48 h
[6] = tested on: A2780; assay: Antiproliferative activity against human A2780 cells after 48 hrs; conditions: A2780, 48 h

Measured: GI50

C#C/C=C\CC(O)C(Cl)C/C=C\CC(Cl)C(Br)CC (mixture of isomers)
> 10 µg/mL: all assays above

C/C=C/[C@H]1C/C=C\C[C@@H](Cl)[C@@H](C[C@H](C=C=CBr)OC(C)=O)O1
> 10 µg/mL: all assays above

C/C=C/[C@H]1C/C=C\C[C@@H](Cl)[C@@H](C[C@@H](O)C=C=CBr)O1 [MARILZALLENE]
> 10 µg/mL: all assays above

COC(=O)/C=C\[C@H]1C[C@H]2O[C@@H](C[C@H]2Cl)[C@@H](Br)C[C@H]2O[C@@H]2[C@H](C)O1
> 10 µg/mL: all assays above

C[C@H]1/C=C/C[C@H](Br)[C@@H]2C[C@@H](Cl)[C@@H](C[C@H](C=C=CBr)O1)O2 [OBTUSALLENE IV]
> 10 µg/mL: all assays above

C[C@@H]1O[C@@H](C=C=CBr)C[C@H]2O[C@@H](C[C@H]2Cl)[C@@H](Br)C[C@H]2O[C@H]12
> 10 µg/mL: all assays above
